Source: a melting point compilation (Tetko et al.; mined from patent text by program, amines drawn as free bases though some values may be those of a salt)

First: Cc1cc(OCc2cnc(-c3ccc(C(F)(F)F)nc3)nc2C2CC2)ccc1OC(C)(C)C(=O)O
Second: CCN1C(=O)C(NC(=O)C(F)(F)F)CCc2c1ccc(Nc1ncc(Cl)c(Nc3ccccc3S(=O)(=O)N(C)C)n1)c2OC (stereo unspecified)
The melting point of the first is lower: 185 to 186 °C for the first, 250 to 251 °C for the second.

First: COC(=O)c1n[nH]c2cc(C(F)(F)F)ccc12
Second: O=c1oc(-c2cccc(C(F)(F)F)c2)ns1
The melting point of the first is higher: 240 to 242 °C for the first, 85 to 86.5 °C for the second.

First: CC(C)(C)OC(=O)NC1C(=O)N(OCc2ccccc2)C12CCOCC2 (stereo unspecified)
Second: CC(=O)OC1CC(OCc2ccccc2)C2COC1O2 (stereo unspecified)
The melting point of the first is higher: 144 to 146 °C for the first, 85 to 87 °C for the second.

First: CCCCCCCCCCCCCCCCCCCCCC(=O)Oc1cc(C(C)(C)C)c(O)c(C(C)(C)C)c1
Second: CCCCCCCCCCCCCCOc1cn(Cc2ccccc2)c(CBr)cc1=O
The melting point of the first is lower: 59 to 61 °C for the first, 135 to 137 °C for the second.

Compared with `CCOc1nc(N(C)C)nc(=O)[nH]1`, `CCCN(CCC)Cc1csc(-c2ncn3c2CN(C)C(=O)c2c(Cl)cccc2-3)n1` is lower in melting point: 215 to 216 °C for the first, 121 to 123 °C for the second.

First: CC(C)c1cc(-c2ccc(F)c3ccccc23)nc(NCCNS(C)(=O)=O)n1
Second: CC(C)(C)CN1C(=O)N(CC(=O)O)N=C(c2ccccc2Cl)c2cc(Cl)ccc21
The melting point of the first is lower: 85 to 91 °C for the first, 181 to 183 °C for the second.

First: N#Cc1ccc(NC(=O)C(=O)N2CCC(Cc3ccccc3)CC2)cc1
Second: CC(=O)N1CCC(CC(=O)c2ccc(Nc3ncnc4c3CCC4)cc2)CC1
The melting point of the first is lower: 109 to 112 °C for the first, 225 to 227 °C for the second.

First: Cc1c(C#N)c(NC(=O)c2ccccc2)n(C(C)c2ccccc2)c1C (stereo unspecified)
Second: N#CCN1C2CCC1CC(OC(c1ccccc1)c1ccccc1)C2 (stereo unspecified)
The melting point of the first is higher: 218 to 221 °C for the first, 94 to 97 °C for the second.

First: C=CCOc1ccccc1C1C(C(=O)OCC)=C(C)NC(C=O)=C1C(=O)OCC (stereo unspecified)
Second: CCOC(=O)c1cc(C(=O)OC)c(CCN2C(=O)c3ccccc3C2=O)o1
The melting point of the first is higher: 129 to 131 °C for the first, 122 to 123 °C for the second.

First: Cc1cc(N2CC=C(C(=O)OC(C)C)CC2)c2cccc(Br)c2n1
Second: CC(C)NC(=O)CN1CCN(CC2CSC3=C(O2)c2ccccc2C(=O)C3=O)CC1 (stereo unspecified)
The melting point of the first is higher: 130 to 131 °C for the first, 85 to 87 °C for the second.

Compared with `Nc1nc(SC2CCCC2)c2ncn(C3C=CC(CO)C3)c2n1` (stereo unspecified), `O=C(NC1CC1)c1cc(Nc2nc(N3CCC[C@H]3CO)nc3ccoc23)n[nH]1` is lower in melting point: 167 to 169 °C for the first, 96.8 °C for the second.

First: CCOC(=O)Nc1ccc(OC(=O)NC)cc1C
Second: CNC(=O)Oc1ccc(NC(=O)C(C)Cl)c(C)c1 (stereo unspecified)
The melting point of the first is lower: 153 to 155 °C for the first, 167 to 170 °C for the second.

First: CC(ON=C(C(=O)O)c1ccc(O)c(Cl)c1)C(=O)OC(C)(C)C (stereo unspecified)
Second: C[C@H](N=C(C(N)=O)C(C)(C)C)c1ccccc1
The melting point of the first is higher: 148 to 151 °C for the first, 100 to 101 °C for the second.

Compared with `OCCOc1ccc(C=Cc2ncn(CC(O)(Cn3cncn3)c3ccc(F)cc3F)n2)cc1` (stereo unspecified), `Cc1oc(-c2ccccc2)nc1CCOc1ccc(C[C@@H](C(=O)O)N2CCN(S(=O)(=O)c3ccc(F)cc3)CC2)cc1` is higher in melting point: 152 to 155 °C for the first, 198 to 200 °C for the second.

Compared with `COC1(Nc2ccccc2CCCc2ccc(Cl)c(Cl)c2)CC=C(C(=O)O)C=C1[N+](=O)[O-]` (stereo unspecified), `NC(=O)Cc1ccc2c(c1)C(=O)Cc1ccccc1O2` is higher in melting point: 127 to 129 °C for the first, 152 to 154 °C for the second.

Compared with `CC(C)(C)OC(=O)N[C@@H](CC(=O)OCc1ccccc1)C(=O)N[C@@H](Cc1ccccc1)C(=O)OCc1ccccc1`, `CCOP(=O)(/C=C/c1cn(-c2ccccc2)nc1OCc1ccc(OCc2nc(-c3ccccc3)sc2C)c(OC)c1)OCC` is higher in melting point: 93 to 94 °C for the first, 110 to 111 °C for the second.

First: CC1(C)Oc2ccc(C(F)(F)F)cc2[C@@H](NC(=O)Nc2ccccc2)[C@@H]1O (relative stereo)
Second: NC(=O)Nc1nc(CC(=O)Nc2cccc(C(F)(F)F)c2)cs1
The melting point of the first is lower: 174 to 175 °C for the first, 195 to 197 °C for the second.

Compared with `CCN(C1CC(C)(C)Oc2ccc(O)cc21)S(C)(=O)=O` (stereo unspecified), `CC1(C)C=Cc2c(ccc3c2C(=O)C(=O)C=C3)O1` is lower in melting point: 169 to 170 °C for the first, 109 to 110 °C for the second.

First: Cc1cc(Cl)cc(C(=O)NC(C)C2CC2)c1NC(=O)c1cc(Br)nn1-c1ncccc1Cl (stereo unspecified)
Second: CCN1C(C)CN(CC(=O)NC2(c3cc4ccccc4o3)C(=O)Nc3cc(Cl)cc(Cl)c32)CC1C (single isomer, unassigned; (+))
The melting point of the first is higher: 182 to 183 °C for the first, 157 to 160 °C for the second.

First: CCCc1c(OCCCCCCc2cccc(OC(C)=O)c2OC(C)=O)ccc(C(=O)O)c1O
Second: CCCc1c(OCCCCCC(=O)c2cc(OC)c(OC)c(C(C)C)c2)ccc(C(=O)O)c1O
The melting point of the first is higher: 120 to 122 °C for the first, 113 to 115 °C for the second.

First: Cc1ccc(-n2cccc2-c2ccc(S(C)(=O)=O)cc2)cc1C
Second: O=S(=O)(CCCc1nc(-c2ccc(F)cc2)c(-c2ccncc2)[nH]1)c1ccccc1
The melting point of the first is higher: 134 to 137 °C for the first, 109 to 110 °C for the second.

First: Brc1ccc(-c2cn([C@H]3CN4CCC3CC4)nn2)cc1
Second: O=C1CCC(c2ccc([N+](=O)[O-])cc2)CC1
The melting point of the first is lower: 158 °C for the first, 160 to 162 °C for the second.

Compared with `CCCc1ccc(-c2cc(F)c(-c3ccc(CC)s3)c(F)c2)cc1`, `CCCCC(=O)c1c(-c2ccc3cc(O)ccc3c2)oc2ccc(Cl)cc12` is higher in melting point: 45 °C for the first, 156 to 157 °C for the second.

First: O=C(O)c1ccc(F)c2c1OCC=C2
Second: CC(C(=O)O)c1ccc(-c2ccc(F)cc2)c(Br)c1 (stereo unspecified)
The melting point of the first is higher: 187 to 189 °C for the first, 129 to 131 °C for the second.

Compared with `O=C(N[C@H]1CC[C@H](CCN2CCC(c3cccc4c3CCO4)CC2)CC1)c1ccc(N2CCOCC2)cc1`, `C=CCN1C2CCC3C1CCC2N3C(c1ccc(C(=O)N2CCCC2)cc1)c1cccc(OC)c1` (stereo unspecified) is lower in melting point: 247 °C for the first, 126 to 128 °C for the second.

Compared with `COc1ccc(CCNC(=O)CNc2ccc(C)cc2)cc1OC`, `COC(=O)[C@@H]1CSC(=O)N1CC(C)(C)SCc1ccc(OC)cc1` is lower in melting point: 87 to 88.5 °C for the first, 51 to 54 °C for the second.

First: CCN1CCN(Cc2cc(C)c3c(c2)-c2[nH]nc(-c4ccsc4)c2C3)CC1
Second: CC(C)(C)OC(=O)N1CCN(c2ccc(C(=O)CSc3ccnc4ccccc34)cc2)CC1
The melting point of the first is higher: 230 to 231 °C for the first, 153 to 154 °C for the second.

Compared with `CC(C)Nc1nc2ccccc2n2cnnc12`, `CC(C)c1nc(-c2cccnc2)c[nH]c1=O` is higher in melting point: 133 to 135 °C for the first, 200 to 202 °C for the second.

Compared with `CCCCOc1ccc(CCCCCCCCC(=O)O)cc1`, `CCC(Cc1ccc(OCCN2CCCCC2)cc1)(C(=O)NO)S(=O)(=O)c1ccc(OC)cc1` (stereo unspecified) is higher in melting point: 45 to 48 °C for the first, 75 °C for the second.

First: CCN1C(=O)CNCc2cc(OC)c([N+](=O)[O-])cc21
Second: O=C1c2cc([N+](=O)[O-])ccc2SC12CC2
The melting point of the first is higher: 132 to 134 °C for the first, 126 to 128 °C for the second.

First: CCCCC1=NC(C)(C)C(=O)N1Cc1ccc(-c2ccccc2C(=O)OC(C)(C)C)cc1
Second: CC(=O)c1cccc(-c2ccc3c(c2)C(C)(C)OC(=O)N3)c1
The melting point of the first is lower: 98 to 100 °C for the first, 178 to 179 °C for the second.

First: CCOC1CC2(C)C(CCC3C4CC(O)C(Br)C4(C)CC(N(C)C)C32)CC1O (stereo unspecified)
Second: O=C(c1ccc(OC23CC4CC(CC(C4)C2)C3)cc1)N1CCCC1
The melting point of the first is higher: 173 to 174 °C for the first, 111 to 113 °C for the second.

Compared with `Cc1c(C(=O)Nc2ccc(OCC(C)(C)C)c(C#N)c2)cnn1C1CCCCC1`, `Cn1c(=O)c(C(=O)NC2CCCCC2)c(Cl)c2cc(O)ccc21` is higher in melting point: 126 to 128 °C for the first, 186 °C for the second.

Compared with `Cc1ccc2c(c1)C=Cc1cc(C)ccc1C2c1cn(Cc2nc(C(=O)Nc3nc(CC(=O)O)cs3)cs2)c(=O)[nH]c1=S`, `Nc1ccccc1NC(=O)c1ccc(C(=O)Nc2cccc(Nc3nc(-c4cccnc4)cs3)c2)cn1` is lower in melting point: 200 to 205 °C for the first, 148 to 150 °C for the second.

First: CCCC(CCC)Nc1cc(C(=O)OC)ccc1N1C(=O)CCC1(CO)CO
Second: COC(=O)c1ccn2c1C(C(=O)OC)CC2 (stereo unspecified)
The melting point of the first is higher: 139 to 140 °C for the first, 70 to 71 °C for the second.

First: COc1cc2c(=O)c(Cc3cccnc3)cn3c4cc(Br)ccc4c(c1)c23
Second: COc1cn(-c2cccc(C3=CCOCC3)c2F)nc(-c2ccnn2-c2ccccc2)c1=O
The melting point of the first is higher: 169 to 172 °C for the first, 138 to 141 °C for the second.

Compared with `Nc1nc2ccccc2c2c1ncn2CCCCNC(=O)N1CCOCC1`, `Cn1ncc(C(=O)N2CCC2)c1C(=O)Nc1ccc2nc(-c3ccccc3)nn2c1` is higher in melting point: 177 to 180 °C for the first, 235 to 236 °C for the second.

Compared with `O=C1c2cc3ccc4c(c3c(-c3ccc5c(c3)OCO5)c2CN1CCCO)OCO4`, `COC(=O)OC[C@@H]1CC(c2ccc(-c3ccc(N4C[C@H](Cn5ccnn5)OC4=O)cc3F)cn2)=NO1` is lower in melting point: 213 to 215 °C for the first, 205 °C for the second.

First: CCCCCCCCNc1ccc2c(C)nc(CC3OC(CO)C(O)C3O)n2n1 (stereo unspecified)
Second: COc1ccc2c(c1)nc1snc(C(=O)c3ncc(C)c(OC)c3C)n12
The melting point of the first is lower: 105 to 106 °C for the first, 170 to 171 °C for the second.

First: CCOc1ccccc1C(=O)c1oc2ccc(Cl)cc2c1N
Second: Nc1ccc(C(=O)c2ccccc2)cc1C=O
The melting point of the first is lower: 114 to 115 °C for the first, 125 °C for the second.

Compared with `COC(=O)c1[nH]c2c(C)ccc(Cl)c2c1C`, `CC1(C)Oc2c(cc(Cl)c3oc(C(=O)O)cc(=O)c23)-c2ccc(S(=O)(=O)O)cc21` is higher in melting point: 122 to 123 °C for the first, 257 to 259 °C for the second.

First: O=C(O)COc1cccnc1-c1ccc(Cl)c(C(=O)NCC23CC4CC(CC(C4)C2)C3)c1
Second: Cc1cc(C)c2cccc(OCc3c(Cl)ccc(S(=O)(=O)N4CCC[C@H]4C(=O)NCCCNC(=O)c4cccc(C(N)=NO)c4)c3Cl)c2n1
The melting point of the first is higher: 133 to 137 °C for the first, 108 to 110 °C for the second.

First: N#Cc1cccc(-c2ccccc2)n1
Second: NC(=O)c1cccc(N2CCN(C(=O)c3c(-c4ccccc4)ccn3CC(=O)O)CC2)c1
The melting point of the first is lower: 65.2 to 66.1 °C for the first, 132 °C for the second.

First: COCCOC(=O)C1CCCCC1C(=O)Nc1cc(OC(C)C)c(Cl)cc1F (stereo unspecified)
Second: CCOC(=O)C1CC(=O)C(C(=O)CC)C(=O)C1 (stereo unspecified)
The melting point of the first is higher: 58 to 60 °C for the first, 55 to 56 °C for the second.

Compared with `Cc1ccccc1COC1COC(c2ccco2)OC1` (stereo unspecified), `O=C1Cc2c(cccc2N(CCN(Cc2ccccc2)C(=O)C(F)(F)F)C(=O)C(F)(F)F)N1` is higher in melting point: 64 to 65 °C for the first, 108 to 111 °C for the second.

First: Cc1cc(SC2=C(O)CC(CCc3ccsc3CO)(C(C)C)OC2=O)c(C(C)(C)C)cc1N (stereo unspecified)
Second: CN(c1cccc2cc(C(N)=O)[nH]c12)S(=O)(=O)c1cccs1
The melting point of the first is lower: 107 to 115 °C for the first, 244 to 245 °C for the second.

Compared with `Cc1c(CN2CCc3[nH]c4ccccc4c3C2=O)ncn1C(c1ccccc1)(c1ccccc1)c1ccccc1`, `COc1ccc(N2CCN(c3ccc(NC(N)=S)cc3)CC2)cc1` is higher in melting point: 235 to 236 °C for the first, 265 °C for the second.

First: CCOC(=O)c1snc(CO)c1N
Second: CN(CC(=O)O)S(=O)(=O)c1csc2ccccc12
The melting point of the first is lower: 82 to 85 °C for the first, 139 to 140 °C for the second.
